Experimental data published in patent US20230085307A1, “PYRIDAZINONE COMPOUND AND HERBICIDE” (NISSAN CHEMICAL CORPORATION, priority 2019, published 2023).

Tests used:
persian speedwell [1] = test: Test Example 4: herbicidal effect by soil treatment (Table 19, symbol R); assay type: in vivo, Persian speedwell (Veronica persica); conditions: amount of applied herbicide 320 g/ha
Summary of the method: (§1)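 In this soil treatment, the formulated compound reached the seeds only through the soil: seeds were buried about 1.5 cm deep in sterilized diluvial soil, then the diluted emulsion was sprayed over the surface. After three weeks at 25° C. to 30° C. in a greenhouse, effects were graded on criteria from an earlier test.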

Japanese bulrush = test: Test Example 1: herbicidal activity, application before weed generation under submerged conditions (Table 16, symbol B); assay type: in vivo, Japanese bulrush (Schoenoplectus juncoides); conditions: 320 g/ha applied herbicide
Summary of the method: (§2)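 Submerged Wagner pots (alluvial soil, 4 cm water) sown with weed seeds and planted with 2.5-leaf rice seedlings; emulsifiable concentrate diluted in water applied to water surface on sowing day. Held in greenhouse at 25-30 °C; injury scored 0-5 by herbicidal rate after three weeks.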

blackgrass [2] = test: Test Example 4: herbicidal effect by soil treatment (Table 19, symbol J); assay type: in vivo, blackgrass (Alopecurus myosuroides); conditions: amount of applied herbicide 320 g/ha
Summary of the method: as §1

redroot pigweed [3] = test: Test Example 5: herbicidal effect by foliage application, plastic box (Table 20, symbol N); assay type: in vivo, redroot pigweed (Amaranthus retroflexus); conditions: foliage application, 320 g/ha, three weeks after application
Summary of the method: (§3)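 Plants were sown into sterilized diluvial soil under about 1.5 cm cover and kept in a greenhouse at 25° C. to 30° C. Fourteen days on, foliage received an even spray of the diluted emulsion. Herbicidal or crop effect was judged three weeks afterwards.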

barnyard grass [4] = test: Test Example 3: herbicidal effect by foliage application, Wagner pot (Table 18, symbol H); assay type: in vivo, barnyard grass (Echinochloa crus-galli); conditions: 320 g/ha
Summary of the method: (§4)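 Plants were sown in alluvial soil held under 0.1–0.5 cm standing water and grown 14 days in a greenhouse at 25–30 °C. An emulsifiable formulation, water-diluted to the set dose, was then sprayed onto the foliage, and effects were scored three weeks later using previously defined criteria.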

Italian ryegrass [5] = test: Test Example 5: herbicidal effect by foliage application, plastic box (Table 20, symbol K); assay type: in vivo, Italian ryegrass (Lolium multiflorum); conditions: foliage application, 320 g/ha, three weeks after application
Summary of the method: as §3

false cleavers [6] = test: Test Example 4: herbicidal effect by soil treatment (Table 19, symbol Q); assay type: in vivo, false cleavers (Galium spurium); conditions: amount of applied herbicide 320 g/ha
Summary of the method: as §1

velvetleaf [7] = test: Test Example 4: herbicidal effect by soil treatment (Table 19, symbol M); assay type: in vivo, velvetleaf (Abutilon theophrasti); conditions: amount of applied herbicide 320 g/ha
Summary of the method: as §1

barnyard grass [8] = test: Test Example 4: herbicidal effect by soil treatment (Table 19, symbol H); assay type: in vivo, barnyard grass (Echinochloa crus-galli); conditions: amount of applied herbicide 320 g/ha
Summary of the method: as §1

Italian ryegrass [9] = test: Test Example 4: herbicidal effect by soil treatment (Table 19, symbol K); assay type: in vivo, Italian ryegrass (Lolium multiflorum); conditions: amount of applied herbicide 320 g/ha
Summary of the method: as §1

wild oat [10] = test: Test Example 4: herbicidal effect by soil treatment (Table 19, symbol I); assay type: in vivo, wild oat (Avena fatua); conditions: amount of applied herbicide 320 g/ha
Summary of the method: as §1

windgrass [11] = test: Test Example 4: herbicidal effect by soil treatment (Table 19, symbol L); assay type: in vivo, windgrass (Apera spica-venti); conditions: amount of applied herbicide 320 g/ha
Summary of the method: as §1

chickweed [12] = test: Test Example 5: herbicidal effect by foliage application, plastic box (Table 20, symbol P); assay type: in vivo, common chickweed (Stellaria media); conditions: foliage application, 320 g/ha, three weeks after application
Summary of the method: as §3

barnyard grass [13] = test: Test Example 5: herbicidal effect by foliage application, plastic box (Table 20, symbol H); assay type: in vivo, barnyard grass (Echinochloa crus-galli); conditions: foliage application, 320 g/ha, three weeks after application
Summary of the method: as §3

Chinese sprangletop = test: Test Example 3: herbicidal effect by foliage application, Wagner pot (Table 18, symbol D); assay type: in vivo, chinese sprangletop (Leptochloa chinensis); conditions: 320 g/ha
Summary of the method: as §4

redroot pigweed [14] = test: Test Example 4: herbicidal effect by soil treatment (Table 19, symbol N); assay type: in vivo, redroot pigweed (Amaranthus retroflexus); conditions: amount of applied herbicide 320 g/ha
Summary of the method: as §1

green foxtail [15] = test: Test Example 4: herbicidal effect by soil treatment (Table 19, symbol G); assay type: in vivo, green foxtail (Setaria viridis); conditions: amount of applied herbicide 320 g/ha
Summary of the method: as §1

southern crabgrass [16] = test: Test Example 5: herbicidal effect by foliage application, plastic box (Table 20, symbol F); assay type: in vivo, southern crabgrass (Digitaria ciliaris); conditions: foliage application, 320 g/ha, three weeks after application
Summary of the method: as §3

oval-leafed pondweed = test: Test Example 1: herbicidal activity, application before weed generation under submerged conditions (Table 16, symbol C); assay type: in vivo, oval-leafed pondweed (Monochoria vaginalis); conditions: 320 g/ha applied herbicide
Summary of the method: as §2

false cleavers [17] = test: Test Example 5: herbicidal effect by foliage application, plastic box (Table 20, symbol Q); assay type: in vivo, false cleavers (Galium spurium); conditions: foliage application, 320 g/ha, three weeks after application
Summary of the method: as §3

rice flat sedge = test: Test Example 3: herbicidal effect by foliage application, Wagner pot (Table 18, symbol E); assay type: in vivo, rice flat sedge (Cyperus iria); conditions: 320 g/ha
Summary of the method: as §4

wild oat [18] = test: Test Example 5: herbicidal effect by foliage application, plastic box (Table 20, symbol I); assay type: in vivo, wild oat (Avena fatua); conditions: foliage application, 320 g/ha, three weeks after application
Summary of the method: as §3

late watergrass = test: Test Example 1: herbicidal activity, application before weed generation under submerged conditions (Table 16, symbol A); assay type: in vivo, late watergrass (Echinochloa oryzicola); conditions: 320 g/ha applied herbicide
Summary of the method: as §2

lambsquarters [19] = test: Test Example 4: herbicidal effect by soil treatment (Table 19, symbol O); assay type: in vivo, lambsquarters (Chenopodium album); conditions: amount of applied herbicide 320 g/ha
Summary of the method: as §1

chickweed [20] = test: Test Example 4: herbicidal effect by soil treatment (Table 19, symbol P); assay type: in vivo, common chickweed (Stellaria media); conditions: amount of applied herbicide 320 g/ha
Summary of the method: as §1

blackgrass [21] = test: Test Example 5: herbicidal effect by foliage application, plastic box (Table 20, symbol J); assay type: in vivo, blackgrass (Alopecurus myosuroides); conditions: foliage application, 320 g/ha, three weeks after application
Summary of the method: as §3

velvetleaf [22] = test: Test Example 5: herbicidal effect by foliage application, plastic box (Table 20, symbol M); assay type: in vivo, velvetleaf (Abutilon theophrasti); conditions: foliage application, 320 g/ha, three weeks after application
Summary of the method: as §3

green foxtail [23] = test: Test Example 5: herbicidal effect by foliage application, plastic box (Table 20, symbol G); assay type: in vivo, green foxtail (Setaria viridis); conditions: foliage application, 320 g/ha, three weeks after application
Summary of the method: as §3

southern crabgrass [24] = test: Test Example 4: herbicidal effect by soil treatment (Table 19, symbol F); assay type: in vivo, southern crabgrass (Digitaria ciliaris); conditions: amount of applied herbicide 320 g/ha
Summary of the method: as §1

persian speedwell [25] = test: Test Example 5: herbicidal effect by foliage application, plastic box (Table 20, symbol R); assay type: in vivo, Persian speedwell (Veronica persica); conditions: foliage application, 320 g/ha, three weeks after application
Summary of the method: as §3

lambsquarters [26] = test: Test Example 5: herbicidal effect by foliage application, plastic box (Table 20, symbol O); assay type: in vivo, lambsquarters (Chenopodium album); conditions: foliage application, 320 g/ha, three weeks after application
Summary of the method: as §3

windgrass [27] = test: Test Example 5: herbicidal effect by foliage application, plastic box (Table 20, symbol L); assay type: in vivo, windgrass (Apera spica-venti); conditions: foliage application, 320 g/ha, three weeks after application
Summary of the method: as §3

## Cc1ccc(-c2sc3ccccc3c2-c2c(O)c(C)nn(C)c2=O)cc1C [1-065]
Persian speedwell [1]
  herbicidal effect rating, R: persian speedwell: 4 (Herbicidal rate of 70% or more and less than 90%)
Japanese bulrush
  Herbicidal effect on B: Japanese bulrush (grade 0-5): 0 (Herbicidal rate of 5% or less (almost no effect))
Blackgrass [2]
  herbicidal effect rating, J: blackgrass: 0 (Herbicidal rate of 5% or less (almost no effect))
Redroot pigweed [3]
  herbicidal effect grade, N: redroot pigweed: 3 (Herbicidal rate of 40% or more and less than 70%)
Barnyard grass [4]
  herbicidal effect on H (barnyard grass), rating 0-5: 3 (Herbicidal rate of 40% or more and less than 70%)
Italian ryegrass [5]
  herbicidal effect grade, K: Italian ryegrass: 2 (Herbicidal rate of 20% or more and less than 40%)
False cleavers [6]
  herbicidal effect rating, Q: false cleavers: 0 (Herbicidal rate of 5% or less (almost no effect))
Velvetleaf [7]
  herbicidal effect rating, M: velvetleaf: 0 (Herbicidal rate of 5% or less (almost no effect))
Barnyard grass [8]
  herbicidal effect rating, H: barnyard grass: 0 (Herbicidal rate of 5% or less (almost no effect))
Italian ryegrass [9]
  herbicidal effect rating, K: Italian ryegrass: 0 (Herbicidal rate of 5% or less (almost no effect))
Wild oat [10]
  herbicidal effect rating, I: wild oat: 0 (Herbicidal rate of 5% or less (almost no effect))
Windgrass [11]
  herbicidal effect rating, L: windgrass: 0 (Herbicidal rate of 5% or less (almost no effect))
Chickweed [12]
  herbicidal effect grade, P: chickweed: 5 (Herbicidal rate of 90% or more (almost completely withered))
Barnyard grass [13]
  herbicidal effect grade, H: barnyard grass: 3 (Herbicidal rate of 40% or more and less than 70%)
Chinese sprangletop
  herbicidal effect on D (Chinese sprangletop), rating 0-5: 3 (Herbicidal rate of 40% or more and less than 70%)
Redroot pigweed [14]
  herbicidal effect rating, N: redroot pigweed: 0 (Herbicidal rate of 5% or less (almost no effect))
Green foxtail [15]
  herbicidal effect rating, G: green foxtail: 0 (Herbicidal rate of 5% or less (almost no effect))
Southern crabgrass [16]
  herbicidal effect grade, F: southern crabgrass: 3 (Herbicidal rate of 40% or more and less than 70%)
oval-leafed pondweed
  Herbicidal effect on C: oval-leafed pondweed (grade 0-5): 0 (Herbicidal rate of 5% or less (almost no effect))
False cleavers [17]
  herbicidal effect grade, Q: false cleavers: 3 (Herbicidal rate of 40% or more and less than 70%)
Rice flat sedge
  herbicidal effect on E (rice flat sedge), rating 0-5: 5 (Herbicidal rate of 90% or more (almost completely withered))
Wild oat [18]
  herbicidal effect grade, I: wild oat: 0 (Herbicidal rate of 5% or less (almost no effect))
Late watergrass
  Herbicidal effect on A: late watergrass (grade 0-5): 3 (Herbicidal rate of 40% or more and less than 70%)
Lambsquarters [19]
  herbicidal effect rating, O: lambsquarters: 0 (Herbicidal rate of 5% or less (almost no effect))
Chickweed [20]
  herbicidal effect rating, P: chickweed: 3 (Herbicidal rate of 40% or more and less than 70%)
Blackgrass [21]
  herbicidal effect grade, J: blackgrass: 0 (Herbicidal rate of 5% or less (almost no effect))
Velvetleaf [22]
  herbicidal effect grade, M: velvetleaf: 5 (Herbicidal rate of 90% or more (almost completely withered))
Green foxtail [23]
  herbicidal effect grade, G: green foxtail: 3 (Herbicidal rate of 40% or more and less than 70%)
Southern crabgrass [24]
  herbicidal effect rating, F: southern crabgrass: 0 (Herbicidal rate of 5% or less (almost no effect))
Persian speedwell [25]
  herbicidal effect grade, R: persian speedwell: 5 (Herbicidal rate of 90% or more (almost completely withered))
Lambsquarters [26]
  herbicidal effect grade, O: lambsquarters: 3 (Herbicidal rate of 40% or more and less than 70%)
Windgrass [27]
  herbicidal effect grade, L: windgrass: 0 (Herbicidal rate of 5% or less (almost no effect))
